Source: PubChem BioAssay (NCI)
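In this assay, cells in 96-well plates receive the compound at five concentrations for 48 hours. Endpoints are linearly interpolated between the surrounding concentrations. GI50 = concentration required for 50% inhibition of growth. TGI is the concentration that stops growth completely.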

Assays:
Test in all cases: NCI tumour cell line growth inhibition, 48 h
MALME-3M melanoma = test system: MALME-3M melanoma
M14 melanoma = test system: M14 melanoma
EKVX NSCLC = test system: EKVX NSCLC
SK-MEL-2 melanoma = test system: SK-MEL-2 melanoma
HOP-92 NSCLC = test system: HOP-92 NSCLC
A498 renal = test system: A498 renal
UO-31 renal = test system: UO-31 renal
MCF7 breast = test system: MCF7 breast
SK-OV-3 ovarian = test system: SK-OV-3 ovarian
SK-MEL-5 melanoma = test system: SK-MEL-5 melanoma
SF-295 CNS = test system: SF-295 CNS
SF-539 CNS = test system: SF-539 CNS
NCI-H226 lung = test system: NCI-H226 lung
SW-620 colon = test system: SW-620 colon
T-47D breast = test system: T-47D breast
NCI/ADR-RES ovarian = test system: NCI/ADR-RES ovarian
OVCAR-4 ovarian = test system: OVCAR-4 ovarian
UACC-257 melanoma = test system: UACC-257 melanoma
RPMI-8226 leukemia = test system: RPMI-8226 leukemia
UACC-62 melanoma = test system: UACC-62 melanoma
TK-10 renal = test system: TK-10 renal
OVCAR-3 ovarian = test system: OVCAR-3 ovarian
HS 578T breast = test system: HS 578T breast
HL-60(TB) leukemia = test system: HL-60(TB) leukemia
CCRF-CEM leukemia = test system: CCRF-CEM leukemia
DU-145 prostate = test system: DU-145 prostate
K-562 leukemia = test system: K-562 leukemia
MDA-MB-435 = test system: MDA-MB-435
A549 NSCLC = test system: A549 NSCLC
SN12C renal = test system: SN12C renal
PC-3 prostate = test system: PC-3 prostate
RXF 393 renal = test system: RXF 393 renal
CAKI-1 renal = test system: CAKI-1 renal
OVCAR-5 ovarian = test system: OVCAR-5 ovarian
HCT-15 colon = test system: HCT-15 colon
HOP-62 NSCLC = test system: HOP-62 NSCLC
U251 CNS = test system: U251 CNS
MDA-MB-468 breast = test system: MDA-MB-468 breast
NCI-H522 lung = test system: NCI-H522 lung
SR leukemia = test system: SR leukemia
SNB-19 CNS = test system: SNB-19 CNS
IGROV1 ovarian = test system: IGROV1 ovarian
HT29 colon = test system: HT29 colon
ACHN renal = test system: ACHN renal
786-0 renal = test system: 786-0 renal
HCT-116 colon = test system: HCT-116 colon
NCI-H460 lung = test system: NCI-H460 lung
OVCAR-8 ovarian = test system: OVCAR-8 ovarian
BT-549 breast = test system: BT-549 breast
HCC-2998 colon = test system: HCC-2998 colon
MDA-MB-231 breast = test system: MDA-MB-231 breast
NCI-H23 lung = test system: NCI-H23 lung
SNB-75 CNS = test system: SNB-75 CNS
LOX IMVI melanoma = test system: LOX IMVI melanoma
MOLT-4 leukemia = test system: MOLT-4 leukemia

O=C(Nc1ccc(OCC(=O)c2ccc(Cl)cc2)cc1)Nc1ccc(Cl)c(C(F)(F)F)c1
GI50 (MALME-3M melanoma): 3.61 µM
TGI (MALME-3M melanoma): > 100 µM
GI50 (M14 melanoma): 4.4 µM
TGI (M14 melanoma): > 100 µM
GI50 (EKVX NSCLC): 3.53 µM
TGI (EKVX NSCLC): > 100 µM
GI50 (SK-MEL-2 melanoma): 2.92 µM
TGI (SK-MEL-2 melanoma): > 100 µM
GI50 (HOP-92 NSCLC): 4.07 µM
TGI (HOP-92 NSCLC): 42.1 µM
GI50 (A498 renal): 3 µM
TGI (A498 renal): 30 µM
GI50 (UO-31 renal): 3.44 µM
TGI (UO-31 renal): > 100 µM
GI50 (MCF7 breast): 5.15 µM
TGI (MCF7 breast): > 100 µM
GI50 (SK-OV-3 ovarian): 14.2 µM
TGI (SK-OV-3 ovarian): > 100 µM
GI50 (SK-MEL-5 melanoma): 6.19 µM
TGI (SK-MEL-5 melanoma): > 100 µM
GI50 (SF-295 CNS): 3.8 µM
TGI (SF-295 CNS): 32.4 µM
GI50 (SF-539 CNS): 7.74 µM
TGI (SF-539 CNS): 24.8 µM
GI50 (NCI-H226 lung): 3.16 µM
TGI (NCI-H226 lung): > 100 µM
GI50 (SW-620 colon): 4.67 µM
TGI (SW-620 colon): > 100 µM
GI50 (T-47D breast): 3.25 µM
TGI (T-47D breast): > 100 µM
GI50 (NCI/ADR-RES ovarian): 4.06 µM
TGI (NCI/ADR-RES ovarian): > 100 µM
GI50 (OVCAR-4 ovarian): 5.35 µM
TGI (OVCAR-4 ovarian): 46.1 µM
GI50 (UACC-257 melanoma): 3.55 µM
TGI (UACC-257 melanoma): > 100 µM
GI50 (RPMI-8226 leukemia): 3.21 µM
TGI (RPMI-8226 leukemia): > 100 µM
GI50 (UACC-62 melanoma): 3.28 µM
TGI (UACC-62 melanoma): > 100 µM
GI50 (TK-10 renal): 15.9 µM
TGI (TK-10 renal): > 100 µM
GI50 (OVCAR-3 ovarian): 4.12 µM
TGI (OVCAR-3 ovarian): > 100 µM
GI50 (HS 578T breast): 4.44 µM
TGI (HS 578T breast): > 100 µM
GI50 (HL-60(TB) leukemia): 4.43 µM
TGI (HL-60(TB) leukemia): > 100 µM
GI50 (CCRF-CEM leukemia): 3.95 µM
TGI (CCRF-CEM leukemia): > 100 µM
GI50 (DU-145 prostate): 7.97 µM
TGI (DU-145 prostate): > 100 µM
GI50 (K-562 leukemia): 10.4 µM
TGI (K-562 leukemia): > 100 µM
GI50 (MDA-MB-435): 6.7 µM
TGI (MDA-MB-435): > 100 µM
GI50 (A549 NSCLC): 3.69 µM
TGI (A549 NSCLC): > 100 µM
GI50 (SN12C renal): 6 µM
TGI (SN12C renal): > 100 µM
GI50 (PC-3 prostate): 2.9 µM
TGI (PC-3 prostate): > 100 µM
GI50 (RXF 393 renal): 3.13 µM
TGI (RXF 393 renal): 9.28 µM
GI50 (CAKI-1 renal): 4.1 µM
TGI (CAKI-1 renal): > 100 µM
GI50 (OVCAR-5 ovarian): 7.49 µM
TGI (OVCAR-5 ovarian): > 100 µM
GI50 (HCT-15 colon): 3.17 µM
TGI (HCT-15 colon): > 100 µM
GI50 (HOP-62 NSCLC): 10.5 µM
TGI (HOP-62 NSCLC): 75.8 µM
GI50 (U251 CNS): 5.48 µM
TGI (U251 CNS): 25.8 µM
GI50 (MDA-MB-468 breast): 2.97 µM
TGI (MDA-MB-468 breast): > 100 µM
GI50 (NCI-H522 lung): 3.68 µM
TGI (NCI-H522 lung): > 100 µM
GI50 (SR leukemia): 13.7 µM
TGI (SR leukemia): > 100 µM
GI50 (SNB-19 CNS): 4.62 µM
TGI (SNB-19 CNS): 30.1 µM
GI50 (IGROV1 ovarian): 5.85 µM
TGI (IGROV1 ovarian): > 100 µM
GI50 (HT29 colon): 4.75 µM
TGI (HT29 colon): > 100 µM
GI50 (ACHN renal): 3.75 µM
TGI (ACHN renal): > 100 µM
GI50 (786-0 renal): 5.8 µM
TGI (786-0 renal): 26.1 µM
GI50 (HCT-116 colon): 4.66 µM
TGI (HCT-116 colon): > 100 µM
GI50 (NCI-H460 lung): 3.46 µM
TGI (NCI-H460 lung): > 100 µM
GI50 (OVCAR-8 ovarian): 7.17 µM
TGI (OVCAR-8 ovarian): > 100 µM
GI50 (BT-549 breast): 11.5 µM
TGI (BT-549 breast): 70.3 µM
GI50 (HCC-2998 colon): 3.4 µM
TGI (HCC-2998 colon): > 100 µM
GI50 (MDA-MB-231 breast): 5.93 µM
TGI (MDA-MB-231 breast): 32 µM
GI50 (NCI-H23 lung): 5.83 µM
TGI (NCI-H23 lung): 31.1 µM
GI50 (SNB-75 CNS): 2.53 µM
TGI (SNB-75 CNS): 45.6 µM
GI50 (LOX IMVI melanoma): 4.41 µM
TGI (LOX IMVI melanoma): 22.2 µM
GI50 (MOLT-4 leukemia): 3.6 µM
TGI (MOLT-4 leukemia): > 100 µM
